According to article PMC9381509, “In-vivo pharmacokinetic studies of Dolutegravir loaded spray dried Chitosan nanoparticles as milk admixture for paediatrics infected with HIV” (Scientific Reports, 2022):
≈ marks a conversion by molar mass, not a printed value. Like-named read-outs stand apart in the source and are kept apart here.

Columns and labels:
[1] = In vivo plasma pharmacokinetics in Balb-C mice (HPLC); details: for AUC(0-t): read-out: AUC0–24 h; for k el: read-out: Ke (converted)
Source text: The pharmaceutical grade working standards of Dolutegravir were obtained as a gift from MSN Laboratories Hyderabad, India. The standard calibration of the pure drug in the mobile phase (Water: Acetonitrile: Methanol in 20:40:40 ratio with 0.2% formic acid) and mice plasma was plotted using the developed method. The plasma samples of untreated normal Balb/c mice were obtained from the Central Animal Facility, SASTRA Deemed University (Approval ID: 585/IAEC/RPP), and the plasma samples were spiked with known concentrations (1, 2, 3, 4, 5 and 10 µg/mL) of DTG and allowed to incubate at room temperature for 15 min. The detection was carried out at 260 nm with an injection volume of 20 μL, wherein the flow rate of the mobile phase was maintained at 1.0 mL/min at the column temperature of 35 °C. Moreover, the validation of the analytical method was also performed in accordance with the procedure referred to in the International Council on Harmonization (ICH) guidelines.
(§1) After validating the developed HPLC method, the same was utilized to quantify the drug present in the plasma and organ (lungs, liver, kidney, heart, brain, and uterus) samples collected at predetermined time points. A total of 114 animals (25–30 g) were acquired from the Central Animal Facility (CAF), SASTRA University, Thanjavur after obtaining the ethical approval from Institutional Animal Ethics Committee (IAEC). The animals were randomly divided into four groups (n = 6) for this study. All animals were housed in individual cages in a temperature-controlled facility. The surgical procedures were approved by IAEC at SASTRA University (585/SASTRA/IAEC/RPP). The experiments were performed following the guidelines issued by the Committee for the Purpose of Control and Supervision of Experiments on animals (CPCSEA), Ministry of Environment and Forest, Government of India and Animal Research: Reporting of In Vivo Experiments (ARRIVE). The 2 groups of mice were orally treated with pure DTG and DTG-loaded Chitosan NPs at the dose equivalent to 10 mg/kg[41] along with milk. The 3rd group of animals was treated with DTG at the same dose through an intravenous route to elucidate the absolute bioavailability and the 4th group of animals was reserved as untreated control for comparison. The blood and organ samples were withdrawn from all the experimental mice at 0.5 h, 3.5 h, 7 h, 14 h, 21 h, and 28 h after euthanizing the animal using CO2 inhalation. The concentration of the drug in each sample was determined by the developed HPLC method, followed by the pharmacokinetic parameters and biodistribution pattern evaluation.

[2] = In-vitro drug release in 0.1 N HCl media by dialysis bag method; assay type: physicochemical; details: 0.1 N HCl medium pH 1.2, dialysis bag, 37 °C
Method: The in vitro drug release study of the DTG-loaded Chitosan NPs was compared with the pure DTG in 0.1 N HCl pH 1.2 by dialysis bag method (Dialysis membrane Himedia, cut-off value—12–14 kDa). About 10 mg of pure drug and a similar dose equivalent amount of nanoparticles were taken for the drug release experiments. The test samples were mixed with 0.5 mL of the corresponding media, placed inside the dialysis bag, and immersed in 10 mL media in a vial. The temperature and magnetic stirring speed of the sample were retained at 37 °C ± 2 °C and 200 rpm, respectively throughout the 24 h study period. At every predetermined time point, the 10 mL samples were collected and immediately replaced with the fresh corresponding medium. The concentration of the drug in each sample was quantified by a UV–Visible spectrophotometer. The UV visible spectrophotometer (UV 1800, Shimadzu, Japan) was initialized with λmax of 260 nm. The absorbance of the test solution was recorded using the quartz cuvette (volume-3.5 mL, path length-1.5 cm) and the calculations were made based on the standard calibration curve by following the Beer Lamberts law. […] The drug release modelling was analysed using DD solver Software[36].

blood cells = test: Haematological analysis (complete blood cell count) of treated animals; assay type: in vivo; details: Balb-C mice; for Basophils / Eosinophil / HCT / HGB / Lymphocyte / MCH / MCHC / MCV / MPV / Monocytes / Neutrophil / PCT / PDW / PLT / RBC / RDW-CV / RDW-SD / WBC: blood 28 h after administration
Method: The counting was made following the method of Beckman Coulter. It measures the changes in electrical resistance produced by non-conductive particles suspended in an electrolyte. The blood sample from the test animals was collected in EDTA tubes and was further suspended through a small orifice along with an electric current. At the sensing end, the suspended particle displaces its volume of electrolyte which was measured as the voltage pulse by the Beckman Coulter. The height of the voltage pulse in proportion to the volume of the blood cell. The white blood cells were quantified based on the VCS technology, where the individual cell volume (V), conductivity (C), and laser light scatter (S) were measured and the scattergram plotted the cell based on the above measurements.

[3] = set-up: method as in earlier work; details: mice, single oral administration as suspension, plasma; ref 27 (Lee et al.); cited from earlier work
[4] = cited from earlier work
[5] = Organ biodistribution of DTG in mice (HPLC); assay type: in vivo; details: mouse, Balb-C mice
Source text: as §1

[6] = mouse, plasma, 10 mg/kg, intravenous route
[7] = mouse, plasma, oral dose equivalent to 10 mg/kg along with milk
[8] = plasma, oral dose equivalent to 10 mg/kg along with milk

Structure (SMILES): C[C@@H]1CCO[C@H]2Cn3cc(C(=O)NCc4ccc(F)cc4F)c(=O)c(O)c3C(=O)N12 [DTG, Dolutegravir]
- Cmax ([1]; Balb-C, mouse, plasma, iv, 10 mg/kg, plasma, 10 mg/kg, intravenous route, read-out: Cmax): 29.3 ± 4.01 µg/mL
- Cmax ([1]; Balb-C, mouse, plasma, po, 10 mg/kg, plasma, oral dose equivalent to 10 mg/kg along with milk, read-out: Cmax): 29.3 ± 4.01 µg/mL
- MRT [1, 6]: 12.07 ± 0.05 h
- Tmax [1, 6]: 7 h
- half-life [1, 6]: 10.5 ± 1.1 h
- AUC(0-t) [1, 6]: 411 ± 91 µg·h/mL
- clearance ([1]; mouse, plasma, 10 mg/kg, intravenous route, read-out: Clearance (converted)): 8.17 mL/min
- k el [1, 6]: 1.81e-05 s⁻¹
- Vd ([1]; mouse, plasma, 10 mg/kg, intravenous route, read-out: Vd): 1.87 ± 0.81 L/kg
- AUC ([1]; mouse, plasma, 10 mg/kg, oral): 405 ± 7 µg·h/mL
- MRT [1, 7]: 10.1 ± 0.93 h
- Tmax [1, 7]: 7 h
- half-life [1, 7]: 11.7 ± 1.6 h
- AUC(0-t) [1, 7]: 405 ± 7 µg·h/mL
- k el [1, 7]: 1.64e-05 s⁻¹
- volume of distribution (Vd) ([1]; orally administered): 4.36 ± 0.78 L
- Ka ([1]; plasma, 10 mg/kg, intravenous route): 0.26 h⁻¹
- Cmax [1, 8]: 30.15 ± 8.06 µg/mL
- Ka [1, 8]: 0.48 h⁻¹
- Vd [1, 8]: 4.36 ± 0.78 L/kg
- clearance [1, 8]: 8 ± 5.5 mL/min
- time taken to release 80% of the drug (T80) [2]: 20 h
- Basophils (blood cells; IV): 0.01 ± 0.02 10^3/µL
- Eosinophil (blood cells; IV): 0.06 ± 0.08 10^3/µL
- HCT (blood cells; IV): 55.83 ± 17.67%
- HGB (blood cells; IV): 13.70 ± 2.95 g/dL
- Lymphocyte (blood cells; IV): 12.83 ± 8.46 10^3/µL
- MCH (blood cells; IV): 16.23 ± 1.46 pg
- MCHC (blood cells; IV): 25.27 ± 3.33 g/dL
- MCV (blood cells; IV): 64.47 ± 2.75 fL
- MPV (blood cells; IV): 6.03 ± 0.15 fL
- Monocytes (blood cells; IV): 0.10 ± 0.07 10^3/µL
- Neutrophil (blood cells; IV): 5.15 ± 1.74 10^3/µL
- PCT (blood cells; IV): 0.50 ± 0.18%
- PDW (blood cells; IV): 15.23 ± 0.32
- PLT (blood cells; IV): 617.00 ± 27.89 10^3/µL
- RBC (blood cells; IV): 8.60 ± 2.47 10^6/µL
- RDW-CV (blood cells; IV): 15.37 ± 1.11%
- RDW-SD (blood cells; IV): 40.60 ± 4.25 fL
- WBC (blood cells; IV): 18.14 ± 10.24 10^3/µL
- Basophils (blood cells; oral with milk): 0.00 10^3/µL
- Eosinophil (blood cells; oral with milk): 0.04 ± 0.03 10^3/µL
- HCT (blood cells; oral with milk): 63.77 ± 1.96%
- HGB (blood cells; oral with milk): 15.10 ± 0.72 g/dL
- Lymphocyte (blood cells; oral with milk): 12.30 ± 1.67 10^3/µL
- MCH (blood cells; oral with milk): 15.57 ± 0.15 pg
- MCHC (blood cells; oral with milk): 23.67 ± 0.15 g/dL
- MCV (blood cells; oral with milk): 65.90 ± 4.10 fL
- MPV (blood cells; oral with milk): 5.97 ± .06 fL
- Monocytes (blood cells; oral with milk): 0.15 ± 0.06 10^3/µL
- Neutrophil (blood cells; oral with milk): 5.32 ± 1.71 10^3/µL
- PCT (blood cells; oral with milk): 0.52 ± 0.07%
- PDW (blood cells; oral with milk): 15.17 ± 0.15
- PLT (blood cells; oral with milk): 674.67 ± 42.91 10^3/µL
- RBC (blood cells; oral with milk): 9.69 ± 0.48 10^6/µL
- RDW-CV (blood cells; oral with milk): 15.47 ± 1.58%
- RDW-SD (blood cells; oral with milk): 41.73 ± .90 fL
- WBC (blood cells; oral with milk): 17.81 ± 3.38 10^3/µL
- toxicity to the blood cells (haematology versus untreated control) (blood cells; oral and IV administration, no statistically significant difference to control): non-toxic to the blood cells
- Cmax [3]: 50 µg/mL
- aqueous solubility ([4]; 25 °C, no ref printed at the value): 0.095 mg/mL (≈ 227 µM)
- BCS class ([4]; ref not given): BCS class II
- AUC ([5]; brain, IV, 10 mg/kg, read-out: AUC of biodistribution of DTG in brain): 2.4 ± 0.33 µg·h/mL
- AUC ([5]; brain, oral with milk, 10 mg/kg equivalent, read-out: AUC of biodistribution of DTG in brain): 2.6 ± 0.5 µg·h/mL
- AUC ([5]; heart, IV, 10 mg/kg, read-out: AUC of biodistribution of DTG in heart): 2 ± 0.38 µg·h/mL
- AUC ([5]; heart, oral with milk, 10 mg/kg equivalent, read-out: AUC of biodistribution of DTG in heart): 2.1 ± 0.4 µg·h/mL
- AUC ([5]; kidney, IV, 10 mg/kg, read-out: AUC of biodistribution of DTG in kidney): 3.8 ± 1.3 µg·h/mL
- AUC ([5]; kidney, oral with milk, 10 mg/kg equivalent, read-out: AUC of biodistribution of DTG in kidney): 2.2 ± 0.4 µg·h/mL
- AUC ([5]; liver, IV, 10 mg/kg, read-out: AUC of biodistribution of DTG in liver): 4.6 ± 1.2 µg·h/mL
- AUC ([5]; liver, oral with milk, 10 mg/kg equivalent, read-out: AUC of biodistribution of DTG in liver): 7.2 ± 1.4 µg·h/mL
- AUC ([5]; lungs, IV, 10 mg/kg, read-out: AUC of biodistribution of DTG in lungs): 4.3 ± 0.68 µg·h/mL
- AUC ([5]; lungs, oral with milk, 10 mg/kg equivalent, read-out: AUC of biodistribution of DTG in lungs): 2.5 ± 0.4 µg·h/mL
- AUC ([5]; uterus, IV, 10 mg/kg, read-out: AUC of biodistribution of DTG in uterus): 5.5 ± 1.2 µg·h/mL
- AUC ([5]; uterus, oral with milk, 10 mg/kg equivalent, read-out: AUC of biodistribution of DTG in uterus): 1.5 ± 0.4 µg·h/mL
